Test results taken from patent US12139520B2 (priority 2020, dated 2024).
Bridge positions count the residues as written; N and C are the ends. Square brackets hold non-standard residues; d marks the D form. Peptide text beside a SMILES is read from it. Hyp = O=C(O)[C@@H]1C[C@@H](O)CN1; Cit = NC(=O)NCCC[C@H](N)C(=O)O

Tests used:
hAM1 receptor = hAM1 receptor (Homo sapiens, UniProt O60895+Q16602); assay: cAMP assay for in vitro receptor activation, hAM1-R; format: cell-based; details: cAMP assay, hAM1 receptor; read-out: hAM1R EC50
How it was run: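 A subcloned monoclonal line stably expressing hAM1 receptor is thawed and plated at 8000 cells/well. The assay buffer is DPBS with 0.05% casein and 0.5 mM IBMX, and receptor activation is followed by cAMP levels.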

[1] = Physical stability of peptide analogues (Thioflavin T fibrillation); format: physicochemical; details: maximum ThT signal normalized between hAMY maximum and buffer background; 40° C., shaking, four days; pH 7 per table title
How it was run: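 ThT fluorescence (450 nm excitation, 480 nm emission; 4 μM dye) was read every 10 min over four days at 40° C under 700 rpm shaking stress, after 1 h in pH 4 acetate or pH 7 phosphate (50 mM). Peak smoothed signal expressed as percent, scaled between buffer background and hAMY maximum.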

hAMY3 receptor = biological target: T1, hAMY3 receptor (Homo sapiens, UniProt O60896+P30988); assay: cAMP assay for in vitro receptor activation, hAMY3-R; format: cell-based; details: cAMP assay, hAMY3 receptor; read-out: hAMY3R EC50
T1 sequence (P30988 25-474): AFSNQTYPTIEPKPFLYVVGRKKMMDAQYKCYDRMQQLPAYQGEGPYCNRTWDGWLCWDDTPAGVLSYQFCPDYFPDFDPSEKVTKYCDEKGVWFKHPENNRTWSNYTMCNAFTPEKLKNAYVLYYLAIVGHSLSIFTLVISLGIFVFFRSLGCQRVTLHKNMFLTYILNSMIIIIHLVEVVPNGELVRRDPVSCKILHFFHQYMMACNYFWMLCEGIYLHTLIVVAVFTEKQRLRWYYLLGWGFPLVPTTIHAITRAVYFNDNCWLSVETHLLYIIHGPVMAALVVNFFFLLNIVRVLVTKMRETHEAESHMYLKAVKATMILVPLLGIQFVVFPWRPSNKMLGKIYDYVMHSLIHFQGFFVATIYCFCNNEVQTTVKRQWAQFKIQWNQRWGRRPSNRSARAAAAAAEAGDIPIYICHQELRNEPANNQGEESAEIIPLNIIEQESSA
T1 sequence (O60896 24-148 partner): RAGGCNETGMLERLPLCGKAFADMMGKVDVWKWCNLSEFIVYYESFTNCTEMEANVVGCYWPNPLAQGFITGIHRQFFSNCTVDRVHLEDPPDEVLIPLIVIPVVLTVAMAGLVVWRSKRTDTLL
How it was run: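 Read-out is TR-FRET cAMP signal, recorded one hour after reagent addition, following 30 min room-temperature stimulation of stable hAMY3 cells with graded compound doses in casein/IBMX (0.5 mM) buffer.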

Chain of hAM1 receptor (Q16602 23-461): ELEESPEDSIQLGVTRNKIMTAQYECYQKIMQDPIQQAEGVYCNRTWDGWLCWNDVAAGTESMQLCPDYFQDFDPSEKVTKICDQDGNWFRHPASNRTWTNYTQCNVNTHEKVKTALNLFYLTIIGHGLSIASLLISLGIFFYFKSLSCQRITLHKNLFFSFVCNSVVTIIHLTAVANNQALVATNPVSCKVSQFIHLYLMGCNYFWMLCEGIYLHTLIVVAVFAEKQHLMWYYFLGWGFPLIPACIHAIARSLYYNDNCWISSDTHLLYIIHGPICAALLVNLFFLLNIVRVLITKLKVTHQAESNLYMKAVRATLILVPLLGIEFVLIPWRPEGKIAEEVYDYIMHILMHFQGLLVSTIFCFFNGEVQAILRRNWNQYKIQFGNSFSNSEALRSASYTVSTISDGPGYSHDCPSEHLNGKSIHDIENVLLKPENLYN
Chain of hAM1 receptor (O60895 43-175 partner): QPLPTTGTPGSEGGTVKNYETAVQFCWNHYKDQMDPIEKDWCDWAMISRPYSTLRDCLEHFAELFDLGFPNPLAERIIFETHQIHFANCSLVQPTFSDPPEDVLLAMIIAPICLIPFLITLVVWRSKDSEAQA

Row | EC50 (hAM1 receptor) | Max ThT signal (%) [1] | EC50 (hAMY3 receptor) | SMILES
1 | > 5000 nM | 27.500% | 0.014 nM | CC[C@H](C)[C@H](NC(=O)[C@H](CCC(N)=O)NC(=O)[C@H](Cc1c[nH]cn1)NC(=O)[C@H](C)NC(=O)[C@H](CC(C)C)NC(=O)[C@H](Cc1c[nH]c2ccccc12)NC(=O)[C@H](CCC(N)=O)NC(=O)[C@@H](NC(=O)[C@@H](NC(=O)[C@@H]1CSSC[C@H](NC(=O)CN)C(=O)N[C@@H](CCCNC(=N)N)C(=O)N[C@@H]([C@@H](C)O)C(=O)NCC(=O)N[C@@H]([C@@H](C)O)C(=O)N1)[C@@H](C)O)C(C)C)C(=O)N[C@@H](Cc1ccc(O)cc1)C(=O)N[C@@H](CCC(N)=O)C(=O)N[C@@H](Cc1ccccc1)C(=O)N[C@H](C(=O)N[C@@H](CC(=O)O)C(=O)N[C@@H](CCCCN)C(=O)N[C@@H](CC(=O)O)C(=O)N[C@@H](CCCCN)C(=O)N[C@@H](CC(=O)O)C(=O)N[C@@H](CC(N)=O)C(=O)N[C@H](C(=O)N[C@@H](C)C(=O)N1CCC[C@H]1C(=O)N[C@@H](CCCNC(=N)N)C(=O)N[C@H](C(=O)N[C@@H](CC(N)=O)C(=O)N[C@H](C(=O)NCC(=O)N1CCC[C@H]1C(=O)N[C@@H](CCC(N)=O)C(=O)NCC(=O)N1C[C@H](O)C[C@H]1C(N)=O)C(C)C)[C@@H](C)O)C(C)C)[C@@H](C)O [compound 323] (H-GCRTGTCTVQWLAHQIYQFTDKDKDNVAPRTNVGPQG[Hyp]-NH2; disulfide 2-7; N-terminus assumed)
2 | > 5000 nM | 20.500% | 0.029 nM | CC[C@H](C)[C@H](NC(=O)[C@H](CC(N)=O)NC(=O)[C@@H](NC(=O)[C@H](CCCNC(=N)N)NC(=O)[C@@H]1CCCN1C(=O)[C@H](C)NC(=O)[C@@H](NC(=O)[C@H](CC(N)=O)NC(=O)[C@H](CC(=O)O)NC(=O)[C@H](CCCCN)NC(=O)[C@H](CC(=O)O)NC(=O)[C@H](CCCCN)NC(=O)[C@H](CC(=O)O)NC(=O)[C@@H](NC(=O)[C@H](Cc1ccccc1)NC(=O)[C@H](CCC(N)=O)NC(=O)[C@H](Cc1ccc(O)cc1)NC(=O)[C@@H](NC(=O)[C@H](CCC(N)=O)NC(=O)[C@H](Cc1c[nH]cn1)NC(=O)[C@H](C)NC(=O)[C@H](CC(C)C)NC(=O)[C@H](Cc1c[nH]c2ccccc12)NC(=O)[C@H](CCC(N)=O)NC(=O)[C@@H](NC(=O)[C@@H](NC(=O)[C@@H]1CSSC[C@H](NC(=O)CN)C(=O)N[C@@H](CCCNC(=N)N)C(=O)N[C@@H]([C@@H](C)O)C(=O)NCC(=O)N[C@@H]([C@@H](C)O)C(=O)N1)[C@@H](C)O)C(C)C)[C@@H](C)CC)[C@@H](C)O)C(C)C)[C@@H](C)O)C(=O)NCC(=O)N1CCC[C@H]1C(=O)N[C@@H](CCC(N)=O)C(=O)NCC(=O)N1C[C@H](O)C[C@H]1C(N)=O [compound 341] (H-GCRTGTCTVQWLAHQIYQFTDKDKDNVAPRTNIGPQG[Hyp]-NH2; disulfide 2-7; N-terminus assumed)
3 | > 5000 nM | 0.600% | 0.091 nM | CC[C@H](C)[C@H](NC(=O)[C@H](CCC(N)=O)NC(=O)[C@H](Cc1c[nH]cn1)NC(=O)[C@H](C)NC(=O)[C@H](CC(C)C)NC(=O)[C@H](CCCNC(=N)N)NC(=O)[C@H](CCC(N)=O)NC(=O)[C@@H](NC(=O)[C@@H](NC(=O)[C@@H]1CSSC[C@H](NC(=O)CN)C(=O)N[C@@H](CCCNC(=N)N)C(=O)N[C@@H]([C@@H](C)O)C(=O)NCC(=O)N[C@@H]([C@@H](C)O)C(=O)N1)[C@@H](C)O)C(C)C)C(=O)N[C@@H](Cc1ccc(O)cc1)C(=O)N[C@@H](CCC(N)=O)C(=O)N[C@@H](Cc1ccccc1)C(=O)N[C@H](C(=O)N[C@@H](CC(=O)O)C(=O)N[C@@H](CCCCN)C(=O)N[C@@H](Cc1ccccc1)C(=O)N[C@@H](CCCCN)C(=O)N[C@@H](CC(=O)O)C(=O)N[C@@H](CC(N)=O)C(=O)N[C@H](C(=O)N[C@@H](C)C(=O)N1CCC[C@H]1C(=O)N[C@@H](CCCNC(=N)N)C(=O)N[C@@H](CO)C(=O)N[C@@H](CCCCN)C(=O)N[C@H](C(=O)N[C@@H](CO)C(=O)N1CCC[C@H]1C(=O)N[C@@H](CCC(N)=O)C(=O)N[C@@H](Cc1ccc(O)cc1)C(=O)N1C[C@H](O)C[C@H]1C(N)=O)[C@@H](C)CC)C(C)C)[C@@H](C)O [compound 186] (H-GCRTGTCTVQRLAHQIYQFTDKFKDNVAPRSKISPQY[Hyp]-NH2; disulfide 2-7; N-terminus assumed)
4 | > 5000 nM | 0.200% | 0.236 nM | CC[C@H](C)[C@H](NC(=O)[C@H](CCC(N)=O)NC(=O)[C@H](Cc1c[nH]cn1)NC(=O)[C@H](C)NC(=O)[C@H](CC(C)C)NC(=O)[C@H](CCCNC(=N)N)NC(=O)[C@H](CCC(N)=O)NC(=O)[C@@H](NC(=O)[C@@H](NC(=O)[C@@H]1CSSC[C@H](NC(=O)CN)C(=O)N[C@@H](CCCNC(=N)N)C(=O)N[C@@H]([C@@H](C)O)C(=O)NCC(=O)N[C@@H]([C@@H](C)O)C(=O)N1)[C@@H](C)O)C(C)C)C(=O)N[C@@H](Cc1ccc(O)cc1)C(=O)N[C@@H](CCC(N)=O)C(=O)N[C@@H](Cc1ccccc1)C(=O)N[C@H](C(=O)N[C@@H](CC(=O)O)C(=O)N[C@@H](CCCCN)C(=O)N[C@@H](Cc1ccccc1)C(=O)N[C@@H](CCCCN)C(=O)N[C@@H](CC(=O)O)C(=O)N[C@@H](CC(N)=O)C(=O)N[C@H](C(=O)N[C@@H](C)C(=O)N1CCC[C@H]1C(=O)N[C@@H](CCCNC(=N)N)C(=O)N[C@@H](CO)C(=O)N[C@@H](CCCCN)C(=O)N[C@H](C(=O)N[C@@H](CO)C(=O)N1CCC[C@H]1C(=O)N[C@@H](CCC(N)=O)C(=O)N[C@H](C(=O)N[C@@H](Cc1ccccc1)C(N)=O)[C@@H](C)O)[C@@H](C)CC)C(C)C)[C@@H](C)O [compound 239] (H-GCRTGTCTVQRLAHQIYQFTDKFKDNVAPRSKISPQTF-NH2; disulfide 2-7; N-terminus assumed)
5 | > 5000 nM | 3.350% | 0.017 nM | CC[C@H](C)[C@H](NC(=O)[C@H](CCC(N)=O)NC(=O)[C@H](CC(=O)O)NC(=O)[C@H](C)NC(=O)[C@H](CC(C)C)NC(=O)[C@H](CCCNC(N)=O)NC(=O)[C@H](CC(N)=O)NC(=O)[C@@H](NC(=O)[C@@H](NC(=O)[C@@H]1CSSC[C@H](NC(=O)[C@@H](N)CCCNC(=N)N)C(=O)N[C@@H](CC(N)=O)C(=O)N[C@@H](C)C(=O)N[C@@H](CO)C(=O)N[C@@H]([C@@H](C)O)C(=O)N1)[C@@H](C)O)C(C)C)C(=O)N[C@H](C(=O)N[C@@H](CCC(N)=O)C(=O)N[C@@H](Cc1ccccc1)C(=O)N[C@@H](CO)C(=O)N[C@@H](CC(N)=O)C(=O)N[C@@H](CCCCN)C(=O)N[C@@H](CC(=O)O)C(=O)N[C@@H](CCCCN)C(=O)N[C@@H](C)C(=O)N[C@@H](CCC(N)=O)C(=O)N[C@H](C(=O)N[C@@H](CO)C(=O)N1CCC[C@H]1C(=O)N1CCC[C@H]1C(=O)N[C@H](C(=O)N[C@@H](CCC(=O)O)C(=O)N[C@H](C(=O)NCC(=O)N1CCC[C@H]1C(=O)N[C@@H](CC(N)=O)C(=O)N[C@@H](CO)C(=O)N1C[C@H](O)C[C@H]1C(N)=O)C(C)C)[C@@H](C)O)C(C)C)[C@@H](C)O [compound 245] (H-RCNASTCTVN[Cit]LADQITQFSNKDKAQVSPPTEVGPNS[Hyp]-NH2; disulfide 2-7; N-terminus assumed)
6 | > 5000 nM | 29.000% | 0.021 nM | CC[C@H](C)[C@H](NC(=O)[C@H](CCC(N)=O)NC(=O)[C@H](Cc1c[nH]cn1)NC(=O)[C@H](C)NC(=O)[C@H](CC(C)C)NC(=O)[C@H](CCCNC(N)=O)NC(=O)[C@H](CCC(N)=O)NC(=O)[C@@H](NC(=O)[C@@H](NC(=O)[C@@H]1CSSC[C@H](NC(=O)CN)C(=O)N[C@@H](CCCNC(=N)N)C(=O)N[C@@H]([C@@H](C)O)C(=O)NCC(=O)N[C@@H]([C@@H](C)O)C(=O)N1)[C@@H](C)O)C(C)C)C(=O)N[C@@H](Cc1ccc(O)cc1)C(=O)N[C@@H](CCC(N)=O)C(=O)N[C@@H](Cc1ccccc1)C(=O)N[C@H](C(=O)N[C@@H](CC(=O)O)C(=O)N[C@@H](CCCCN)C(=O)N[C@@H](CC(=O)O)C(=O)N[C@@H](CCCCN)C(=O)N[C@@H](CC(=O)O)C(=O)N[C@@H](CC(N)=O)C(=O)N[C@H](C(=O)N[C@@H](C)C(=O)N1CCC[C@H]1C(=O)N[C@@H](CCCNC(=N)N)C(=O)N[C@H](C(=O)N[C@@H](CC(N)=O)C(=O)N[C@H](C(=O)NCC(=O)N1CCC[C@H]1C(=O)N[C@@H](CCC(N)=O)C(=O)NCC(=O)N[C@@H](Cc1ccc(O)cc1)C(N)=O)C(C)C)[C@@H](C)O)C(C)C)[C@@H](C)O [compound 273] (H-GCRTGTCTVQ[Cit]LAHQIYQFTDKDKDNVAPRTNVGPQGY-NH2; disulfide 2-7; N-terminus assumed)
